Patent US5500429A, “Calcium uptake inhibitors” (Merrell Pharmaceuticals Inc., priority 1993, dated 1996)

How the values were obtained:
Rat PMNL [1] = assay: Myeloperoxidase (MPO) Release from rat PMNL; format: cell-based; details: for inhibition at 1 µM / inhibition at 3 µM / inhibition at 10 µM / inhibition at 30 µM / inhibition at 100 µM / inhibition at 300 µM: Rattus norvegicus, PMNL
Description: (§1) Rat PMNL were obtained from exudates resulting from peritoneal injection of 6 mL of 8% sodium caseinate. Eighteen hours after injection rats were killed by carbon dioxide inhalation and the peritoneal cavity lavaged with Hank's balanced salt solution (HBSS). After concentration of the PMNL by centrifugation, contaminating erythrocytes were removed by hypotonic lysis. The PMNL were then washed twice by centrifugation (400×g for 10 minutes) and resuspended in HBSS. Cell viability was greater than 90% by Trypan Blue exclusion and greater than 90% of the cells were PMNL by Wright-Giemsa stain.
MPO release was determined using the MPO catalyzed oxidation of o-dianisidine. The experiments were carried out in 96-well microtiter plates (Webster and Henson, 1978). In each well, 50 microliter (μ1) aliquots of a PMNL suspension (2×10^7 cell/mL in HBSS) were incubated with 50 μof HBSS containing vehicle (0.3% DMSO) or inhibitor for 30 minutes at 37° C. The final DMSO concentration never exceeded 0.3% and was constant throughout each experiment. To activate the PMNL, 50 μl of one of the following were added for 30 minutes at 37° C.: N-formyl-Met-Leu-Phe (fMLP; 0.1 μM); phorbol myristate acetate (PMA, 200 ng/mL); or rat serum opsonized zymosan (OZ; 2.6 mg/mL, prepared by the method of Ward et al., 1983). The stimuli were added in 50 μl HBSS which also contained the compounds or vehicle, as appropriate, to avoid changing the inhibitor concentration. Cell activation was terminated by centrifugation of the plates at 600×g for 5 minutes at 22° C. Aliquots (100 μl) of supernatant were removed from each well and transferred to a 96-well flatbottomed microtiter plate for the MPO assay. To each aliquot of supernatant was added 100 μl of a freshly prepared solution containing 50 μl of 0.2M sodium phosphate buffer (pH 6.2), 25 μl of 3.9 mM O-dianisidine and 25 μl of 0.015M hydrogen peroxide. Blanks were obtained using the same solution without hydrogen peroxide. The plates were mixed and then incubated at room temperature in the dark for about 15 minutes. Absorbances of the samples were measured at 450 nm.
Rat PMNL were isolated in HBSS containing Ca^+2. As summarized in the figure below, fMLP stimulation of rat PMNL in the presence of cytochalasin B or with opsonized zymosan or with ionomycin results in the release of myeloperoxidase (fMLP/MPO, OZ/MPO, and ION/MPO; columns 2, 4, and 6 respectively).

Rat PMNL [2] = assay: Superoxide Anion (SOA) Production by rat PMNL; format: cell-based; details: for inhibition of superoxide anion production: PMA and OZ induced; for inhibition at 1 µM / inhibition at 3 µM / inhibition at 10 µM / inhibition at 30 µM / inhibition at 100 µM / inhibition at 300 µM: Rattus norvegicus, PMNL
Description: as §1
Aliquots (50 μl) of a rat PMNL suspension (2×10^7 cells/mL in HBSS) were incubated with 50 μl of HBSS containing vehicle (0.3% DMSO) or compound for 30 minutes at 37° C. as above. One hundred microliters of buffer containing 5.98 mg/mL of cytochrome C (Sigma Type III) and 0.1 mg/mL catalase, plus the compounds where appropriate, were then added to each sample. A blank for spectrophotometric measurement, containing unstimulated cells in the presence of cytochrome C, catalase and SOD, was also prepared. To activate the PMNL, 75 μl of PMA or OZ were added to achieve the final concentration of cell activator (plus vehicle or inhibitor as described above for MPO release) and the cells further incubated at 37° C. for 60 minutes. The activation was terminated by centrifugation at 600×g for 5 minutes at 4° C. Aliquots (200 μl) of supernatant were then transferred to a second, flat-well microtiter plate and measured spectrophotometrically at 550 nm. […]

[3] = fMLP + cytochalasin B, read-out: fMLP/MPO inhibition
[4] = ionomycin, read-out: ION/MPO inhibition
[5] = opsonized zymosan, read-out: OZ/MPO inhibition
[6] = fMLP + cytochalasin B, opsonized zymosan, ionomycin
[7] = PMA, read-out: PMA/SOA inhibition
[8] = opsonized zymosan, read-out: OZ/SOA inhibition

Structure (SMILES)	inhibition at 1 µM (Rat PMNL [1]; [3])	inhibition at 3 µM (Rat PMNL [1]; [3])	inhibition at 10 µM (Rat PMNL [1]; [3])	inhibition at 30 µM (Rat PMNL [1]; [3])	inhibition at 100 µM (Rat PMNL [1]; [3])	inhibition at 1 µM (Rat PMNL [1]; [4])	inhibition at 3 µM (Rat PMNL [1]; [4])	inhibition at 10 µM (Rat PMNL [1]; [4])	inhibition at 30 µM (Rat PMNL [1]; [4])	inhibition at 100 µM (Rat PMNL [1]; [4])	inhibition at 1 µM (Rat PMNL [1]; [5])	inhibition at 3 µM (Rat PMNL [1]; [5])	inhibition at 10 µM (Rat PMNL [1]; [5])	inhibition at 30 µM (Rat PMNL [1]; [5])	inhibition at 100 µM (Rat PMNL [1]; [5])	inhibition of myeloperoxidase release (Rat PMNL [1]; [6])	inhibition of superoxide anion production (Rat PMNL [2])	inhibition at 1 µM (Rat PMNL [2]; [7])	inhibition at 3 µM (Rat PMNL [2]; [7])	inhibition at 10 µM (Rat PMNL [2]; [7])	also measured
O=C(C=Cc1ccncc1)c1ccccc1 [MDL 29,355, 1-phenyl-3-(4-pyridinyl)-2-propene-1-one]	0.1%	5%	16.5%	53.3%	101%	-4.5%	-1.7%	14.8%	24.4%	89.1%	-1.7%	3.4%	3.6%	3.2%	7.1%	dose dependent inhibition of myeloperoxidase release	inhibited in a dose dependent fashion	-29.5%	-30.2%	-20.7%	inhibition at 300 µM (Rat PMNL [1]; [3]): 104%; inhibition at 300 µM (Rat PMNL [1]; [4]): 99.6%; inhibition at 300 µM (Rat PMNL [1]; [5]): 42.4%; inhibition at 30 µM (Rat PMNL [2]; [7]): -12.3%; inhibition at 100 µM (Rat PMNL [2]; [7]): 21.1%; inhibition at 300 µM (Rat PMNL [2]; [7]): 104%; inhibition at 1 µM (Rat PMNL [2]; [8]): -10.7%; inhibition at 3 µM (Rat PMNL [2]; [8]): -12.6%; inhibition at 10 µM (Rat PMNL [2]; [8]): 2.5%; inhibition at 30 µM (Rat PMNL [2]; [8]): 27.5%; inhibition at 100 µM (Rat PMNL [2]; [8]): 67.6%; inhibition at 300 µM (Rat PMNL [2]; [8]): 102%
CN(C)c1ccc(C(=O)C=Cc2ccncc2)cc1 [MDL 101,240, 1-(4-dimethylaminophenyl)-3-(4-pyridinyl)-2-propene-1-one]	13.1%	11.7%	31.2%	67.3%	112%	-8%	-5%	-2%	12%	35.6%	2.5%	7.3%	28.1%	82.5%	142%	dose dependent inhibition of myeloperoxidase release	inhibited in a dose dependent fashion	-7.2%	4.7%	5.9%	inhibition at 30 µM (Rat PMNL [2]; [7]): 34.5%; inhibition at 100 µM (Rat PMNL [2]; [7]): 81.5%; inhibition at 1 µM (Rat PMNL [2]; [8]): -7.8%; inhibition at 3 µM (Rat PMNL [2]; [8]): 2.5%; inhibition at 10 µM (Rat PMNL [2]; [8]): 21.3%; inhibition at 30 µM (Rat PMNL [2]; [8]): 66.3%; inhibition at 100 µM (Rat PMNL [2]; [8]): 85%
